Reference: patent US11708366B2, “Heteroaryl substituted spiropiperidinyl derivatives and pharmaceutical uses thereof” (Novartis AG, priority 2020, dated 2023)

Key:
[1] = biological target: T1, LTC4S (Homo sapiens (Human), UniProt Q16873); test: Human LTC4S enzymatic assay (HTRF detection of LTC4-Me); assay type: biochemical; conditions: 0.75 nM enzyme, 400 μM GSH, 5 μM LTA4-Me, 15 min pre-incubation; read-out: human LTC4S IC50 (enzymatic assay)
Procedure: A. Human LTC4S Enzymatic Assay:
LTC4 synthase catalyzes the conversion of Leukotriene A4 (LTA4) to Leukotriene C4 (LTC4) in the presence of reduced glutathione (GSH) as a co-substrate. For compound testing, compounds are delivered as 10 mM stock solutions in 90% DMSO in matrix tubes. From this, a 1:3 dilution dose response series is prepared with a starting concentration of 30 μM to 0.1 nM. For the enzymatic assay 97.5 nL of compound/DMSO solution is transferred to each well and 5 μL enzyme solution (assay buffer: 50 mM bis-tris propane pH 7.3, 250 mM NaCl, 10 mM MgCl2, 0.001% MGN3) is added to the wells. […] The enzyme compound mixture is incubated at room temperature for 15 minutes prior to the addition of 5 μL substrate solution. […] A final substrate concentration of 400 μM GSH and 5 μM LTA4-Me is chosen.
The LTA4-Me is obtained commercially in 2% triethylamine/hexane solvent. As this solvent is incompatible with the HTRF assay it has to be exchanged with DMSO according to following procedure: add 50 μL of 100% DMSO to 50 μL LTA4-Me (3 mM) in a 2 mL Eppendorf tube and mix gently by inverting the tube. The triethylamine/hexane is evaporated under a constant argon flux at room temperature. The DMSO-LTA4-Me (3 mM) is aliquoted and stored at −20° C. for not longer than 4 weeks, as it is not stable in DMSO due to its oxidizing properties.
Upon addition of the substrate, the plate is immediately placed on a shaker for 5 min at room temperature. Immediately after the 5 min incubation 5 μL of H2O2 solution is added to all wells to stop the reaction. The plate contents are mixed before the addition of detection reagents. […] For the detection of the product of the enzymatic reaction LTC4-Me, the Cisbio LTC4-HTRF kit is used as the assay is compatible with the detection of LTC4-Me. 5 μL of diluted LTC4-d2 conjugate (according to manufacturer's protocol) are added to all wells of the assay plate and the contents gently mixed and incubated for 5 minutes at room temperature. […] The percent inhibition for each point of an inhibition curve is calculated after data interpolation using the LTC4-Me standard curve, to convert the HTRF signal to the amount of LTC4-Me produced within the LTC4S catalyzed reaction on each plate. The data is analyzed using parametric curve fitting to determine IC50 values of LTC4S inhibitors.

[2] = biological target: T1, LTC4S; test: Human whole blood HTRF assay (LTC4 release after calcium ionophore A23187); assay type: cell-based; conditions: human whole blood diluted 1:3, 4 h incubation, calcium ionophore A23187 stimulation, LTC4 by HTRF; read-out: human whole blood HTRF IC50

Molecule	IC50 [1]	IC50 [2]
O=C1CCCC2(CCN(c3nncc(C4CCCC4)n3)CC2)N1c1ccc(Cl)c(F)c1 [Example 20, 1-(4-chloro-3-fluorophenyl)-9-(5-cyclopentyl-1,2,4-triazin-3-yl)-1,9-diazaspiro[5.5]undecan-2-one]	12 nM	64 nM
O=C1CCCC2(CCN(c3cc(-c4ccc(F)cc4)cc[n+]3[O-])CC2)N1c1ccc(Cl)c(F)c1 [Example 33, 2-(1-(4-chloro-3-fluorophenyl)-2-oxo-1,9-diazaspiro[5.5]undecan-9-yl)-4-(4-fluorophenyl)pyridine 1-oxide]	24 nM	56 nM
Cn1cc(-c2ccc(F)cc2)nc(N2CCC3(CCCC(=O)N3c3ccc(Cl)c(F)c3)CC2)c1=O [Example 9, 1-(4-chloro-3-fluorophenyl)-9-(6-(4-fluorophenyl)-4-methyl-3-oxo-3,4-dihydropyrazin-2-yl)-1,9-diazaspiro[5.5]undecan-2-one]	2 nM	48 nM
O=C1CCCC2(CCN(c3nsc(N4CC(C(F)(F)F)C4)n3)CC2)N1c1ccc(Cl)c(F)c1 [Example 24, 1-(4-chloro-3-fluorophenyl)-9-(5-(3-(trifluoromethyl)azetidin-1-yl)-1,2,4-thiadiazol-3-yl)-1,9-diazaspiro[5.5]undecan-2-one]	33 nM	110 nM
O=C1CCCC2(CCN(c3ncc4ccc(C(F)(F)F)cc4n3)CC2)N1c1ccc(Cl)c(F)c1 [Example 4, 1-(4-chloro-3-fluorophenyl)-9-(7-(trifluoromethyl)quinazolin-2-yl)-1,9-diazaspiro[5.5]undecan-2-one]	7 nM	50 nM
O=C1CCCC2(CCN(c3nsc(N4CCCC4)n3)CC2)N1c1ccc(Cl)c(F)c1 [Example 25, 1-(4-chloro-3-fluorophenyl)-9-(5-(pyrrolidin-1-yl)-1,2,4-thiadiazol-3-yl)-1,9-diazaspiro[5.5]undecan-2-one]	62 nM	170 nM
O=C1CCCC2(CCN(c3nsc(N4CCC(F)(F)C4)n3)CC2)N1c1ccc(Cl)c(F)c1 [Example 23, 1-(4-chloro-3-fluorophenyl)-9-(5-(3,3-difluoropyrrolidin-1-yl)-1,2,4-thiadiazol-3-yl)-1,9-diazaspiro[5.5]undecan-2-one]	61 nM	45 nM
O=C1CCCC2(CCN(c3ncc(-c4ccc(F)cc4)o3)CC2)N1c1ccc(Cl)c(F)c1 [Example 21, 1-(4-chloro-3-fluorophenyl)-9-(5-(4-fluorophenyl)oxazol-2-yl)-1,9-diazaspiro[5.5]undecan-2-one]	4 nM	7 nM
O=C1CCCC2(CCN(c3ncnc(N4CCCC4)c3F)CC2)N1c1ccc(Cl)c(F)c1 [Example 36, 1-(4-chloro-3-fluorophenyl)-9-(5-fluoro-6-(pyrrolidin-1-yl)pyrimidin-4-yl)-1,9-diazaspiro[5.5]undecan-2-one]	6 nM	44 nM
1-(4-chloro-3-fluorophenyl)-9-(5-((1R,2R)-2-(trifluoromethyl)cyclopropyl)-1,2,4-oxadiazol-3-yl)-1,9-diazaspiro[5.5]undecan-2-one, or 1-(4-chloro-3-fluorophenyl)-9-(5-((1S,2S)-2-(trifluoromethyl)cyclopropyl)-1,2,4-oxadiazol-3-yl)-1,9-diazaspiro[5.5]undecan-2-one [Example 6a]	190 nM	310 nM
O=C1CCCC2(CCN(c3nccc(C(F)(F)F)n3)CC2)N1c1ccc(Cl)c(F)c1 [Example 3, 1-(4-chloro-3-fluorophenyl)-9-(4-(trifluoromethyl)pyrimidin-2-yl)-1,9-diazaspiro[5.5]undecan-2-one]	8 nM	180 nM
